Where two headings read alike, the source gives them in different places.
Key:
[1] = Effect of smoking on pharmacokinetics of tasimelteon and metabolites; assay type: in vivo, human; design: AUC (inf) / AUC(0-inf): concentration or dose not given beside the values; details: for AUC (inf), Geometric Mean Ratio / Cmax, Geometric Mean Ratio / t½, Geometric Mean Ratio: Smokers vs Non-Smokers; for half-life: read-out: t½ (converted)
Text: Smokers were defined as those smoking 10 or more cigarettes per day. Non-smokers were defined as those smoking no cigarettes per day.

[2] = Pharmacokinetics on co-administration of tasimelteon and fluvoxamine; assay type: in vivo, human; details: for AUC (inf), Geometric Mean Ratio / Cmax, Geometric Mean Ratio / t½, Geometric Mean Ratio: Day 8 vs Day 1; for half-life: read-out: t½ (converted)
Experimental: Twenty-four healthy male or female subjects between the ages of 18 and 55 years of age (inclusive) who were non-smokers with a body mass index (BMI) of ≥18 and ≤35 kg/m2 participated in this open-label, single-sequence study conducted at one site. On day 1, subjects were administered […] of tasimelteon.

[3] = in vivo; cited from earlier work
[4] = human, in vivo, Non-Smokers, read-out: Cmax
[5] = human, in vivo, Smokers (10 or more cigarettes per day), read-out: Cmax
[6] = human, in vivo, Smokers, read-out: Tmax
[7] = both sexes, human, in vivo, Day 1, 5.667 mg tasimelteon alone, read-out: Cmax
[8] = both sexes, human, in vivo, Day 1, 5.667 mg tasimelteon alone, read-out: Tmax
[9] = both sexes, human, in vivo, Day 1, 5.667 mg tasimelteon alone
[10] = Smokers (10 or more cigarettes per day)
[11] = Day 1, 5.667 mg tasimelteon alone
[12] = Day 8, 5.667 mg tasimelteon + 50 mg fluvoxamine

| Compound | AUC (inf), Geometric Mean Ratio [1] [%] | Cmax, Geometric Mean Ratio [1] [%] | t½, Geometric Mean Ratio [1] [%] | AUC (inf), Geometric Mean Ratio [2] [%] | Cmax, Geometric Mean Ratio [2] [%] | t½, Geometric Mean Ratio [2] [%] | AUC (inf) ([1]; Non-Smokers) [ng·h/mL] | Cmax ([1]; Non-Smokers) [ng/mL] | Tmax ([1]; Non-Smokers) [h] | t½ ([1]; Non-Smokers) [h] | AUC (inf) ([1]; Smokers) [ng·h/mL] | Tmax ([1]; Smokers) [h] | t½ ([1]; Smokers) [h] | Cmax [1, 10] [ng/mL] | AUC (inf) [2, 11] [ng·h/mL] | Cmax [2, 11] [ng/mL] | Tmax [2, 11] [h] | t½ [2, 11] [h] | AUC (inf) [2, 12] [ng·h/mL] | Cmax [2, 12] [ng/mL] | other results |
| --- | --- | --- | --- | --- | --- | --- | --- | --- | --- | --- | --- | --- | --- | --- | --- | --- | --- | --- | --- | --- | --- |
| CCC(=O)NC[C@@H]1C[C@H]1c1cccc(O)c1CC(=O)O [M9] | 74.36 | 77.18 | 85.40 | 122.56 | 64.94 | 328.02 | – | – | – | – | – | – | – | – | – | – | – | – | – | – | AUC(0-inf) ([1]; human, in vivo, Non-Smokers): 406 ± 75 ng·h/mL; Cmax [1, 4]: 279 ± 82.8 ng/mL; half-life ([1]; human, in vivo, Non-Smokers): 1.38 ± 0.45 h; AUC(0-inf) ([1]; human, in vivo, Smokers): 315 ± 112 ng·h/mL; Cmax [1, 5]: 230 ± 118 ng/mL; Tmax [1, 6]: 0.75 h; half-life ([1]; human, in vivo, Smokers): 1.15 ± 0.17 h; Cmax [2, 7]: 67.6 ± 19.1 ng/mL; Tmax [2, 8]: 0.5 h; half-life [2, 9]: 1.14 ± 0.29 h |
| CCC(=O)NC[C@@H]1C[C@H]1c1cccc(O)c1CCO [M11] | 81.84 | 84.50 | 94.13 | 126.03 | 68.71 | 248.35 | – | – | – | – | – | – | – | – | – | – | – | – | – | – | AUC(0-inf) ([1]; human, in vivo, Non-Smokers): 154 ± 58 ng·h/mL; Cmax [1, 4]: 54.9 ± 15.1 ng/mL; half-life ([1]; human, in vivo, Non-Smokers): 2.14 ± 0.94 h; AUC(0-inf) ([1]; human, in vivo, Smokers): 124 ± 42 ng·h/mL; Cmax [1, 5]: 46.2 ± 11.9 ng/mL; Tmax [1, 6]: 1 h; half-life ([1]; human, in vivo, Smokers): 1.99 ± 0.85 h; Cmax [2, 7]: 15.8 ± 5.4 ng/mL; Tmax [2, 8]: 1 h; half-life [2, 9]: 1.61 ± 0.55 h |
| CCC(=O)NCC1CC1c1cccc2c1C(O)CO2 (stereo not drawn) [M12] | 84.87 | 115.53 | 73.31 | 274.81 | 92.74 | 241.02 | 679 ± 433 | 108 ± 29 | 1.00 | 3.05 ± 1.73 | 526 ± 193 | 1.00 | 2.11 ± 0.67 | 123 ± 28 | 189 ± 90.8 | 31.0 ± 7.23 | 0.88 | 3.03 ± 1.02 | 435 ± 109.3 | 30.8 ± 17.6 | Tmax [2, 12]: 3.00 h; t½ [2, 12]: 7.03 ± 3.27 h |
| CCC(=O)NC[C@@H]1C[C@H]1c1cccc2c1CC(O)O2 (stereo partly drawn) [M13] | 97.31 | 99.49 | 77.51 | 125.05 | 69.31 | 349.81 | 337 ± 94 | 270 ± 71 | 0.50 | 1.18 ± 0.50 | 329 ± 99 | 0.75 | 0.89 ± 0.26 | 272 ± 86 | 106 ± 32.6 | 87.5 ± 24.4 | 0.50 | 1.00 ± 0.30 | 133 ± 32.9 | 63.6 ± 24.6 | Tmax [2, 12]: 0.50 h; t½ [2, 12]: 3.51 ± 1.18 h |
| CCC(=O)NCC1CC1c1cccc2c1C(O)CO2 (stereo not drawn) [M14] | 42.98 | 60.17 | 65.09 | 944.73 | 264.58 | 243.34 | 22.0 ± 24.2 | 6.18 ± 3.15 | 0.75 | 1.84 ± 1.22 | 9.45 ± 11.88 | 0.75 | 1.13 ± 0.54 | 3.72 ± 1.86 | 4.54 ± 2.39 | 1.20 ± 0.40 | 0.75 | 2.18 ± 0.97 | 42.6 ± 27.3 | 3.20 ± 1.49 | Tmax [2, 12]: 4.00 h; t½ [2, 12]: 4.98 ± 1.89 h |
| COc1ccc2[nH]cc(CCNC(C)=O)c2c1 [Melatonin] | – | – | – | – | – | – | – | – | – | – | – | – | – | – | – | – | – | – | – | – | Tmax [3]: ≥ 2 h |

From patent US11090285B2, “Treatment of circadian rhythm disorders” (Vanda Pharmaceuticals Inc., priority 2013, dated 2021)
